According to PubChem BioAssay AID220 (DTP/NCI, 2004):
“And” between values parts separate entries of the source, which are not always exact repeats. Equal values may be shown once. Records with an inconclusive call do not appear.

Tested on: CD8F1 mice, subcutaneous mammary adenocarcinoma, T/C%
Experiment: NCI In Vivo Anticancer Drug Screen. Data for tumor model Mammary Adenocarcinoma CD8F1 (subcutaneous) in CD8F1
Settings: higher = larger tumour
Outline: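 Transplantable tumors were established in mice, animals were dosed with compound or vehicle, and survival or tumor size was then measured in both groups. The treated result was divided by the control result.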

CCN=C=NCCCN(C)C
T/C (endpoint: median tumor weight change, dose: 3.9 mg/kg/injection, schedule: Q01DX001 (ip), vehicle: saline): 115 % of control | T/C (endpoint: median tumor weight change, dose: 7.81 mg/kg/injection, schedule: Q01DX001 (ip), vehicle: saline): 112 % of control | T/C (endpoint: median tumor weight change, dose: 15.63 mg/kg/injection, schedule: Q01DX001 (ip), vehicle: saline): 92 % of control | T/C (endpoint: median tumor weight change, dose: 31.25 mg/kg/injection, schedule: Q01DX001 (ip), vehicle: saline): 109 % of control | T/C (endpoint: median tumor weight change, dose: 62.5 mg/kg/injection, schedule: Q01DX001 (ip), vehicle: saline): 67 % of control

[N-]=[N+]=CC(=O)CCC(N)C(=O)O (stereo not given)
T/C (endpoint: median tumor weight (est.), dose: 3.12 mg/kg/injection, schedule: Q04DX005 (ip), vehicle: saline): 22 % of control and 43 % of control | T/C (endpoint: median tumor weight (est.), dose: 6.25 mg/kg/injection, schedule: Q04DX005 (ip), vehicle: saline): 31 % of control and 56 % of control | T/C (endpoint: median tumor weight (est.), dose: 12.5 mg/kg/injection, schedule: Q04DX005 (ip), vehicle: saline): 30 % of control and 50 % of control | T/C (endpoint: median tumor weight (est.), dose: 12.5 mg/kg/injection, schedule: Q07DX004 (ip), vehicle: saline): 85 % of control and 105 % of control | T/C (endpoint: median tumor weight (est.), dose: 12.5 mg/kg/injection, schedule: Q07DX005 (ip), vehicle: saline): 23 % of control and 30 % of control | T/C (endpoint: median tumor weight (est.), dose: 25.0 mg/kg/injection, schedule: Q01DX001 (ip), vehicle: saline): 35 % of control | T/C (endpoint: median tumor weight (est.), dose: 25.0 mg/kg/injection, schedule: Q07DX004 (ip), vehicle: saline): 23 % of control and 34 % of control | T/C (endpoint: median tumor weight (est.), dose: 25.0 mg/kg/injection, schedule: Q07DX005 (ip), vehicle: saline): 47 % of control | T/C (endpoint: median tumor weight (est.), dose: 50.0 mg/kg/injection, schedule: Q01DX001 (ip), vehicle: saline): 35 % of control | T/C (endpoint: median tumor weight (est.), dose: 50.0 mg/kg/injection, schedule: Q07DX004 (ip), vehicle: saline): 21 % of control and 31 % of control | T/C (endpoint: median tumor weight (est.), dose: 50.0 mg/kg/injection, schedule: Q07DX005 (ip), vehicle: saline): 16 % of control and 33 % of control | T/C (endpoint: median tumor weight (est.), dose: 100.0 mg/kg/injection, schedule: Q01DX001 (ip), vehicle: saline): 43 % of control | T/C (endpoint: median tumor weight (est.), dose: 100.0 mg/kg/injection, schedule: Q07DX005 (ip), vehicle: saline): 6 % of control

CCCCCC(O)C1C(=O)OC(C)C(O)/C=C/C=C/C=C/C=C\C=C(\C)C(O)CC(O)CC(O)CC(O)CC(O)CC(O)CC1O (stereo not given)
T/C (endpoint: median tumor weight change, dose: 62.5 mg/kg/injection, schedule: Q01DX001 (ip), vehicle: distilled water + Tween-80): 150 % of control

CC12C(=O)C=CCC1=CCC1C2CCC2(O)C(=O)OC3(C)C4CC5(C)C(COC16OC23C5C6=O)C(=O)O4 (stereo not given)
T/C (endpoint: median tumor weight change, dose: 250.0 mg/kg/injection, schedule: Q01DX001 (ip), vehicle: Klucel (hydroxypropylcellulose) (HPC)): 96 % of control | T/C (endpoint: median tumor weight change, dose: 500.0 mg/kg/injection, schedule: Q01DX001 (ip), vehicle: Klucel (hydroxypropylcellulose) (HPC)): 35 % of control

CN(C)[C@@H]1C(=O)C(C(N)=O)=C(O)[C@@]2(O)C(=O)C3=C(O)c4c(O)ccc(Cl)c4[C@@](C)(O)[C@H]3C[C@@H]12
T/C (endpoint: median tumor weight change, dose: 31.25 mg/kg/injection, schedule: Q01DX001 (ip), vehicle: suspension in saline): 86 % of control | T/C (endpoint: median tumor weight change, dose: 62.5 mg/kg/injection, schedule: Q01DX001 (ip), vehicle: suspension in saline): 104 % of control | T/C (endpoint: median tumor weight change, dose: 125.0 mg/kg/injection, schedule: Q01DX001 (ip), vehicle: suspension in saline): 84 % of control | T/C (endpoint: median tumor weight change, dose: 250.0 mg/kg/injection, schedule: Q01DX001 (ip), vehicle: suspension in saline): 83 % of control

O=C1c2ccccc2C(=O)c2c(NCCNCCO)ccc(NCCNCCO)c21
T/C (endpoint: mean tumor weight, dose: 8.3 mg/kg/injection, schedule: Q07DX004 (ip), vehicle: Klucel (hydroxypropylcellulose) (HPC)): 60 % of control | T/C (endpoint: mean tumor weight, dose: 16.6 mg/kg/injection, schedule: Q07DX004 (ip), vehicle: Klucel (hydroxypropylcellulose) (HPC)): 81 % of control | T/C (endpoint: mean tumor weight, dose: 31.25 mg/kg/injection, schedule: Q07DX004 (ip), vehicle: Klucel (hydroxypropylcellulose) (HPC)): 25 % of control | T/C (endpoint: mean tumor weight, dose: 62.5 mg/kg/injection, schedule: Q07DX004 (ip), vehicle: Klucel (hydroxypropylcellulose) (HPC)): 59 % of control | T/C (endpoint: mean tumor weight, dose: 125.0 mg/kg/injection, schedule: Q07DX004 (ip), vehicle: Klucel (hydroxypropylcellulose) (HPC)): 37 % of control | T/C (endpoint: median tumor weight (est.), dose: 2.0 mg/kg/injection, schedule: Q07DX005 (ip), vehicle: saline): 74 % of control | T/C (endpoint: median tumor weight (est.), dose: 4.0 mg/kg/injection, schedule: Q04DX005 (ip), vehicle: water): 97 % of control | T/C (endpoint: median tumor weight (est.), dose: 4.0 mg/kg/injection, schedule: Q07DX004 (ip), vehicle: water): 74 % of control | T/C (endpoint: median tumor weight (est.), dose: 4.0 mg/kg/injection, schedule: Q07DX005 (ip), vehicle: saline): 92 % of control | T/C (endpoint: median tumor weight (est.), dose: 4.0 mg/kg/injection, schedule: Q07DX005 (ip), vehicle: water): 93 % of control | T/C (endpoint: median tumor weight (est.), dose: 8.0 mg/kg/injection, schedule: Q04DX005 (ip), vehicle: water): 62 % of control | T/C (endpoint: median tumor weight (est.), dose: 8.0 mg/kg/injection, schedule: Q07DX004 (ip), vehicle: water): 69 % of control | T/C (endpoint: median tumor weight (est.), dose: 8.0 mg/kg/injection, schedule: Q07DX005 (ip), vehicle: saline): 92 % of control | T/C (endpoint: median tumor weight (est.), dose: 15.63 mg/kg/injection, schedule: Q04DX005 (ip), vehicle: Klucel (hydroxypropylcellulose) (HPC)): 30 % of control | T/C (endpoint: median tumor weight (est.), dose: 15.63 mg/kg/injection, schedule: Q07DX004 (ip), vehicle: Klucel (hydroxypropylcellulose) (HPC)): 33 % of control | T/C (endpoint: median tumor weight (est.), dose: 16.0 mg/kg/injection, schedule: Q04DX005 (ip), vehicle: water): 66 % of control | T/C (endpoint: median tumor weight (est.), dose: 16.0 mg/kg/injection, schedule: Q07DX004 (ip), vehicle: water): 72 % of control | T/C (endpoint: median tumor weight (est.), dose: 16.0 mg/kg/injection, schedule: Q07DX005 (ip), vehicle: saline): 84 % of control | T/C (endpoint: median tumor weight (est.), dose: 16.12 mg/kg/injection, schedule: Q04DX005 (ip), vehicle: Klucel (hydroxypropylcellulose) (HPC)): 9 % of control | T/C (endpoint: median tumor weight (est.), dose: 16.12 mg/kg/injection, schedule: Q07DX004 (ip), vehicle: Klucel (hydroxypropylcellulose) (HPC)): 17 % of control | T/C (endpoint: median tumor weight (est.), dose: 31.25 mg/kg/injection, schedule: Q04DX005 (ip), vehicle: Klucel (hydroxypropylcellulose) (HPC)): 11 % of control | T/C (endpoint: median tumor weight (est.), dose: 32.0 mg/kg/injection, schedule: Q01DX001 (ip), vehicle: water): 63 % of control | T/C (endpoint: median tumor weight (est.), dose: 32.0 mg/kg/injection, schedule: Q04DX005 (ip), vehicle: water): 18 % of control | T/C (endpoint: median tumor weight (est.), dose: 32.0 mg/kg/injection, schedule: Q07DX004 (ip), vehicle: water): 44 % of control | T/C (endpoint: median tumor weight (est.), dose: 32.0 mg/kg/injection, schedule: Q07DX005 (ip), vehicle: saline): 56 % of control | T/C (endpoint: median tumor weight (est.), dose: 62.5 mg/kg/injection, schedule: Q07DX005 (ip), vehicle: Klucel (hydroxypropylcellulose) (HPC)): 10 % of control | T/C (endpoint: median tumor weight (est.), dose: 64.0 mg/kg/injection, schedule: Q07DX004 (ip), vehicle: water): 7 % of control | T/C (endpoint: median tumor weight (est.), dose: 64.0 mg/kg/injection, schedule: Q07DX005 (ip), vehicle: water): 19 % of control

CN1CCN(Cc2nc3cccc4c3c([n+]2[O-])-c2ccccc2-4)CC1
T/C (endpoint: median tumor weight (est.), dose: 12.5 mg/kg/injection, schedule: Q07DX005 (ip), vehicle: saline with Tween-80): 180 % of control | T/C (endpoint: median tumor weight (est.), dose: 25.0 mg/kg/injection, schedule: Q07DX005 (ip), vehicle: saline with Tween-80): 114 % of control | T/C (endpoint: median tumor weight (est.), dose: 50.0 mg/kg/injection, schedule: Q07DX005 (ip), vehicle: saline with Tween-80): 99 % of control | T/C (endpoint: median tumor weight (est.), dose: 100.0 mg/kg/injection, schedule: Q07DX005 (ip), vehicle: saline with Tween-80): 120 % of control | T/C (endpoint: median tumor weight (est.), dose: 200.0 mg/kg/injection, schedule: Q07DX005 (ip), vehicle: saline with Tween-80): 68 % of control

CNC(=O)OCc1c(COC(=O)NC)c(-c2ccc(F)cc2)n2c1CCC2
T/C (endpoint: median tumor weight (est.), dose: 3.12 mg/kg/injection, schedule: Q07DX005 (ip), vehicle: Klucel (hydroxypropylcellulose) (HPC)): 49 % of control | T/C (endpoint: median tumor weight (est.), dose: 6.25 mg/kg/injection, schedule: Q07DX005 (ip), vehicle: Klucel (hydroxypropylcellulose) (HPC)): 63 % of control | T/C (endpoint: median tumor weight (est.), dose: 12.5 mg/kg/injection, schedule: Q07DX005 (ip), vehicle: Klucel (hydroxypropylcellulose) (HPC)): 84 % of control | T/C (endpoint: median tumor weight (est.), dose: 25.0 mg/kg/injection, schedule: Q07DX005 (ip), vehicle: Klucel (hydroxypropylcellulose) (HPC)): 48 % of control | T/C (endpoint: median tumor weight (est.), dose: 50.0 mg/kg/injection, schedule: Q07DX005 (ip), vehicle: Klucel (hydroxypropylcellulose) (HPC)): 39 % of control

CN(C)CCCNc1c2ccccc2nc2cccc([N+](=O)[O-])c12
T/C (endpoint: median tumor weight (est.), dose: 0.06 mg/kg/injection, schedule: Q07DX004 (ip), vehicle: saline): 90 % of control | T/C (endpoint: median tumor weight (est.), dose: 15.0 micrograms/kg/injection, schedule: Q07DX005 (ip), vehicle: saline): 86 % of control

Cc1oc2c(C)c3oc(=O)cc(C)c3cc2c1CCl
T/C (endpoint: median tumor weight change, dose: 15.62 mg/kg/injection, schedule: Q01DX001 (ip), vehicle: saline with Tween-80): 60 % of control | T/C (endpoint: median tumor weight change, dose: 31.25 mg/kg/injection, schedule: Q01DX001 (ip), vehicle: saline with Tween-80): 68 % of control | T/C (endpoint: median tumor weight change, dose: 1000.0 mg/kg/injection, schedule: Q01DX001 (ip), vehicle: saline with Tween-80): 42 % of control

CCCCC[C@H](O)/C=C/[C@@H]1[C@@H](C/C=C\CCCC(=O)O)[C@@H](O)C[C@H]1O
T/C (endpoint: mean tumor weight, dose: 160.0 mg/kg/injection, schedule: Q01DX001 (iv), vehicle: saline): 93 % of control | T/C (endpoint: mean tumor weight, dose: 320.0 mg/kg/injection, schedule: Q01DX001 (iv), vehicle: saline): 58 % of control
